In patent US12187672B2, “1,2-diacylglycerol compound, preparation method therefor, and immunomodulator containing same as active ingredient” (ENZYCHEM LIFESCIENCES CORPORATION, priority 2018, dated 2025):
“And” between values parts separate entries of the source, which are not always exact repeats. Equal values may be shown once.

Columns and labels:
[1] = test system: HL-60 cells; experiment: Migration of HL-60 cell line toward THP-1 culture supernatant (transmigration assay); assay type: cell-based, human; conditions: supernatant of THP-1 cells treated with sample 100 μg/ml 1 h, then Gemcitabine 2 μg/ml 24 h
How it was run: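 THP-1 cells pretreated 1 h with compounds, then stimulated with gemcitabine (2 μg/ml) for 24 h; supernatant placed in lower chamber. HL-60 cells (5×10^4/chamber) migrated through laminin I-coated upper chamber; migrated cells quantified by Calcein-AM fluorescence converted to cell number.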

[2] = test system: STAT6; experiment: IL-4-induced STAT6 activity, pGL4-STAT6 luciferase reporter in A549 cells; assay type: cell-based; conditions: sample 100 μg/ml 1 h
How it was run: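 A549 cells transiently transfected with pGL4-STAT6 reporter (24 h), pretreated with compound 1 h, then stimulated with IL-4 (2 ng/ml or 10 ng/ml) for 20 h. Cells lysed and luciferase luminescence read as STAT6 activity.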

[3] = test system: STAT3; experiment: IL-6-induced STAT3 activity, SEAP expression in HEK-Blue IL-6 cells; assay type: cell-based; conditions: HEK-Blue IL-6 cells; for STAT3 activity_SEAP expression(%) (average ± deviation): sample 100 μg/ml 1 h, then IL-6 5 ng/ml 24 h, negative control = 100
How it was run: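 HEK-Blue IL-6 reporter cells at 1×10^5 cells/ml in DMEM with 10% FBS were exposed to compound for 1 h, then IL-6 (5 ng/ml) for 24 h at 37 °C. STAT3-driven SEAP in supernatant was detected with Quanti-Blue (1:10, ~30 min, 37 °C) at 650 nm.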

[4] = test system: Aeruginosa K (PAK) of the genus Psuedomonas; experiment: Infection inhibition test in mouse model of lung infection with bacteria (CFU in BALF); assay type: in vivo, Balb/c mice; conditions: 250 mg/kg oral
Experimental: For getting mice model whose lung are infected with bacteria, 12-week old Balb/c male mice were purchased from Koatech Corporation (South Korea) and maintained in certain pathogen-free facilities under moderate temperature and lights cycles. For obtain bacteria to induce lung infection, Aeruginosa K (PAK) of the genus Psuedomonas was incubated in LB broth or LB agar plate overnight at 37° C., and then the culture solution was centrifuged at 13,000×g for 2 minutes to obtain a bacterial pellet. Thereafter, the bacterial pellet was suspended in phosphate buffered saline (PBS), and the optical density of the serial dilution was measured and plated on an agar plate, so that bacterial inoculum having a colony forming unit (CFU) was obtained. A bacterial inoculum solution for infection was prepared at a concentration of 1×10^5 CFU per 20 μl, and the prepared PAK bacterial inoculum (1×10^5 CFU per mouse in 20 μl PBS) was administered to a total of 8 12-week-old Balb/c mice by nasal injection. Four of the PAK-administered groups were orally administered the compound of the present invention (EC_A21) at 250 mg/kg, and PBS was administered to the control group. After 4 hours, samples of bronchoalveolar lavage fluid (BALF) from P. aeruginosa-infected mice were collected, and the collected BALF samples were diluted 1:1000 with PBS. The diluted samples were plated on LB agar and then incubated overnight at 37° C. CFU levels in BALF were confirmed by measuring the number of surviving bacteria by a plate count method. The results are shown in Table 8, FIG. 7 and FIG. 8 below.

[5] = then IL-4 (2 ng/ml) 20 h, Table 9
[6] = then IL-4 (10 ng/ml) 20 h, Table 10

SMILES	Number of HL-60 cells migrated through Transwell [1] [Cell Number]	STAT6 activity_Luciferase activity (average ± deviation) [2, 6]	other results
CCCCC/C=C\C/C=C\CCCCCCCC(=O)OC(COC(C)=O)COC(=O)CCCCCCCCCCCCCCC (centres unmarked) [EC-18, 1-palmitoyl-2-linoleoyl-3-acetylglycerol, reference compound]	2697.2	18878.0 ± 500.8	STAT6 activity_Luciferase activity (average ± deviation) [2, 5]: 462.5 ± 161.7; decrease of STAT3 activity compared to the IL-6 cytokine-treated group ([3]; 100 μg/ml): about 25%; STAT3 activity_SEAP expression(%) (average ± deviation) [3]: 173.0 ± 7.9%
CCCCC/C=C\C/C=C\CCCCCCCC(=O)OC(COC(=O)CCCCCCCCCCCCCCC)COC(C)C (centres unmarked) [EC_A21]	1986.3	–	bacterial CFU in BALF, average ± deviation ([4]; PAK 1×10^5 CFU nasal, BALF after 4 hours, 4 Balb/c mice): 14.0 ± 6.0 10^3 CFU/ml; bacterial CFU in BALF, individual mouse ([4]; PAK 1×10^5 CFU nasal, BALF after 4 hours, Balb/c mice, 250 mg/kg): 8.0 10^3 CFU/ml and 19.0 10^3 CFU/ml and 20.0 10^3 CFU/ml and 14.0 10^3 CFU/ml; bacterial CFU in BALF versus PAK alone group (in words) ([4]; fourth hour after PAK administration): significantly lower than that of the PAK alone group; STAT6 activity_Luciferase activity (average ± deviation) [2, 5]: 880.0 ± 50.0; STAT3 activity_SEAP expression(%) (average ± deviation) [3]: 224.1 ± 22.4%
CCCCC/C=C\C/C=C\CCCCCCCC(=O)OC(COC(=O)CC)COC(=O)CCCCCCCCCCCCCCC (centres unmarked) [EC_A78]	23396.6	19208.7 ± 2129.6	–
CCCCC/C=C\C/C=C\CCCCCCCC(=O)OC(COC(=O)CCCCCCCCCCCCCCC)COC(=O)C1CC1 (centres unmarked) [EC_A79]	12527.5	20037.7 ± 786.0	–
CCCCC/C=C\C/C=C\CCCCCCCC(=O)OC(COC(=O)CCCCCC)COC(=O)CCCCCCCCCCCCCCC (centres unmarked) [EC_A83]	7316.6	18788.2 ± 2805.4	–
CCCCC/C=C\C/C=C\CCCCCCCC(=O)OC(COC(=O)CCC)COC(=O)CCCCCCC (centres unmarked) [EC_A85]	7687.7	19878.2 ± 4338.5	–
CCCCC/C=C\C/C=C\CCCCCCCC(=O)OC(COC(=O)CCCC)COC(=O)CCCCCCC (centres unmarked) [EC_A86]	18542.0	18158.0 ± 3182.4	–
CCCCC/C=C\C/C=C\CCCCCCCC(=O)OC(COC(=O)CC)COC(=O)CCCCCCC (centres unmarked) [EC_A87]	7198.0	17258.7 ± 3007.1	–
CCCCC/C=C\C/C=C\CCCCCCCC(=O)OC(COC(=O)CCCCCCC)COC(=O)C(C)C (centres unmarked) [EC_A88]	17552.5	17409.5 ± 1849.8	–
CCCCCC=CCC=CCCCCCCCC(=O)OC(COC(=O)CCCCCCC)COC(=O)C(C)(C)C (centres unmarked) [EC_A89]	6969.9	18635.5 ± 846.4	–
CCCCC/C=C\C/C=C\CCCCCCCC(=O)OC(COC(=O)CC)COC(=O)CCCCCCCCCCC (centres unmarked) [EC_A91]	9429.8	22036.0 ± 4089.4	–
CCCCC/C=C\C/C=C\CCCCCCCC(=O)OC(COC(=O)CCC)COC(=O)CCCCCCCCCCC (centres unmarked) [EC_A92]	2891.6	17237.2 ± 317.7	–
CCCCC/C=C\C/C=C\CCCCCCCC(=O)OC(COC(=O)CCCC)COC(=O)CCCCCCCCCCC (centres unmarked) [EC_A93]	6828.6	15562.5 ± 900.7	–
CCCCC/C=C\C/C=C\CCCCCCCC(=O)OC(COC(=O)CCCCCCCCCCC)COC(=O)C(C)CC (centres unmarked) [EC_A96]	15110.8	14593.2 ± 2168.7	–
CCCCC/C=C\C/C=C\CCCCCCCC(=O)OC(COC(=O)CC)COC(=O)CCCCCCCCC (centres unmarked) [EC_A97]	7440.6	16787.0 ± 4102.6	–
CCCCC/C=C\C/C=C\CCCCCCCC(=O)OC(COC(=O)CCC)COC(=O)CCCCCCCCC (centres unmarked) [EC_A98]	11056.8	14727.2 ± 129.2	–
CCCCC/C=C\C/C=C\CCCCCCCC(=O)OC(COC(=O)CCCC)COC(=O)CCCCCCCCC (centres unmarked) [EC_A99]	7164.9	17407.0 ± 1347.6	–
CCCCC/C=C\C/C=C\CCCCCCCC(=O)OC(COC(=O)CCCCCCCCC)COC(=O)C(C)C (centres unmarked) [EC_A100]	8947.2	14212.0 ± 1008.8	–
CCCCC/C=C\C/C=C\CCCCCCCC(=O)OC(COC(=O)CCCCCCCCC)COC(=O)C(C)(C)C (centres unmarked) [EC_A101]	4848.9	19438.7 ± 580.2	–
CCCCC/C=C\C/C=C\CCCCCCCC(=O)OC(COC(=O)CCCCCCCCC)COC(=O)C(C)CC (centres unmarked) [EC_A102]	8091.5	18719.2 ± 2558.5	–
